Columns and labels:
Assay in all cases: biochemical
GRK4 = GRK4 (Homo sapiens, UniProt P32298); settings: read-out: % Inhibition (at 10mM)
Mer = target: T1, Mer (Homo sapiens, UniProt Q12866); settings: read-out: % Inhibition (at 10mM)
T1 construct: gene MERTK

CSF1R = CSF1R (Homo sapiens, UniProt P07333); settings: read-out: % Inhibition (at 10mM)
PKC_beta2 = target: T2, PKC_beta2 (Homo sapiens, UniProt P05771); settings: read-out: % Inhibition (at 10mM)
T2 construct: gene PRKCB; isoform beta 2

PKA = target: T3, PKA (Homo sapiens, UniProt P17612); settings: read-out: % Inhibition (at 10mM)
T3 construct: gene PRKACA

TAO2 = target: T4, TAO2 (Homo sapiens, UniProt Q9UL54); settings: read-out: % Inhibition (at 10mM)
T4 construct: gene TAOK2

PrKX = PrKX (Homo sapiens, UniProt P51817); settings: read-out: % Inhibition (at 10mM)
MST1 = target: T5, MST1 (Homo sapiens, UniProt Q13043); settings: read-out: % Inhibition (at 10mM)
T5 construct: gene STK4

PRKAA2_B2_G3 = target: T6, PRKAA2_B2_G3 (Homo sapiens, UniProt P54646); settings: read-out: % Inhibition (at 10mM)
T6 construct: gene PRKAA2

MARK2 = MARK2 (Homo sapiens, UniProt Q7KZI7); settings: read-out: % Inhibition (at 10mM)
DMPK2 = target: T7, DMPK2 (Homo sapiens, UniProt Q6DT37); settings: read-out: % Inhibition (at 10mM)
T7 construct: gene CDC42BPG

PKG1_alpha = target: T8, PKG1_alpha (Homo sapiens, UniProt Q13976); settings: read-out: % Inhibition (at 10mM)
T8 construct: gene PRKG1; isoform alpha

CamKII_delta = target: T9, CamKII_delta (Homo sapiens, UniProt Q13557); settings: read-out: % Inhibition (at 10mM)
T9 construct: gene CAMK2D

ERK2 = target: T10, ERK2 (Homo sapiens, UniProt P28482); settings: read-out: % Inhibition (at 10mM)
T10 construct: gene MAPK1

PLK3 = PLK3 (Homo sapiens, UniProt Q9H4B4); settings: read-out: % Inhibition (at 10mM)
p38_delta = target: T11, p38_delta (Homo sapiens, UniProt O15264); settings: read-out: % Inhibition (at 10mM)
T11 construct: gene MAPK13

KHS1 = target: T12, KHS1 (Homo sapiens, UniProt Q9Y4K4); settings: read-out: % Inhibition (at 10mM)
T12 construct: gene MAP4K5

Fyn = Fyn (Homo sapiens, UniProt P06241); settings: read-out: % Inhibition (at 10mM)
Flt1 = Flt1 (Homo sapiens, UniProt P17948); settings: read-out: % Inhibition (at 10mM)
Ret = Ret (Homo sapiens, UniProt P07949); settings: read-out: % Inhibition (at 10mM)
ALK = ALK (Homo sapiens, UniProt Q9UM73); settings: read-out: % Inhibition (at 10mM)
MuSK = MuSK (Homo sapiens, UniProt O15146); settings: read-out: % Inhibition (at 10mM)
CamKIV = target: T13, CamKIV (Homo sapiens, UniProt Q16566); settings: read-out: % Inhibition (at 10mM)
T13 construct: gene CAMK4

FGFR1 = FGFR1 (Homo sapiens, UniProt P11362); settings: read-out: % Inhibition (at 10mM)
ErbB2 = ErbB2 (Homo sapiens, UniProt P04626); settings: read-out: % Inhibition (at 10mM)
MRCK_alpha = target: T14, MRCK_alpha (Homo sapiens, UniProt Q5VT25); settings: read-out: % Inhibition (at 10mM)
T14 construct: gene CDC42BPA

CK1_gamma2 = target: T15, CK1_gamma2 (Homo sapiens, UniProt P78368); settings: read-out: % Inhibition (at 10mM)
T15 construct: gene CSNK1G2

CLK1 = CLK1 (Homo sapiens, UniProt P49759); settings: read-out: % Inhibition (at 10mM)
mTOR = mTOR (Homo sapiens, UniProt P42345)
Flt3 = Flt3 (Homo sapiens, UniProt P36888); settings: read-out: % Inhibition (at 10mM)
FAK = target: T16, FAK (Homo sapiens, UniProt Q05397); settings: read-out: % Inhibition (at 10mM)
T16 construct: gene PTK2

AKT2 = AKT2 (Homo sapiens, UniProt P31751); settings: read-out: % Inhibition (at 10mM)
MARK4 = MARK4 (Homo sapiens, UniProt Q96L34); settings: read-out: % Inhibition (at 10mM)
PRK1 = target: T17, PRK1 (Homo sapiens, UniProt Q16512); settings: read-out: % Inhibition (at 10mM)
T17 construct: gene PKN1

IRAK4 = IRAK4 (Homo sapiens, UniProt Q9NWZ3); settings: read-out: % Inhibition (at 10mM)
KSR2 = KSR2 (Homo sapiens, UniProt Q6VAB6); settings: read-out: % Inhibition (at 10mM)
ITK = ITK (Homo sapiens, UniProt Q08881); settings: read-out: % Inhibition (at 10mM)
PKC_zeta = target: T18, PKC_zeta (Homo sapiens, UniProt Q05513); settings: read-out: % Inhibition (at 10mM)
T18 construct: gene PRKCZ

Chain of Ret (P07949 whole entry): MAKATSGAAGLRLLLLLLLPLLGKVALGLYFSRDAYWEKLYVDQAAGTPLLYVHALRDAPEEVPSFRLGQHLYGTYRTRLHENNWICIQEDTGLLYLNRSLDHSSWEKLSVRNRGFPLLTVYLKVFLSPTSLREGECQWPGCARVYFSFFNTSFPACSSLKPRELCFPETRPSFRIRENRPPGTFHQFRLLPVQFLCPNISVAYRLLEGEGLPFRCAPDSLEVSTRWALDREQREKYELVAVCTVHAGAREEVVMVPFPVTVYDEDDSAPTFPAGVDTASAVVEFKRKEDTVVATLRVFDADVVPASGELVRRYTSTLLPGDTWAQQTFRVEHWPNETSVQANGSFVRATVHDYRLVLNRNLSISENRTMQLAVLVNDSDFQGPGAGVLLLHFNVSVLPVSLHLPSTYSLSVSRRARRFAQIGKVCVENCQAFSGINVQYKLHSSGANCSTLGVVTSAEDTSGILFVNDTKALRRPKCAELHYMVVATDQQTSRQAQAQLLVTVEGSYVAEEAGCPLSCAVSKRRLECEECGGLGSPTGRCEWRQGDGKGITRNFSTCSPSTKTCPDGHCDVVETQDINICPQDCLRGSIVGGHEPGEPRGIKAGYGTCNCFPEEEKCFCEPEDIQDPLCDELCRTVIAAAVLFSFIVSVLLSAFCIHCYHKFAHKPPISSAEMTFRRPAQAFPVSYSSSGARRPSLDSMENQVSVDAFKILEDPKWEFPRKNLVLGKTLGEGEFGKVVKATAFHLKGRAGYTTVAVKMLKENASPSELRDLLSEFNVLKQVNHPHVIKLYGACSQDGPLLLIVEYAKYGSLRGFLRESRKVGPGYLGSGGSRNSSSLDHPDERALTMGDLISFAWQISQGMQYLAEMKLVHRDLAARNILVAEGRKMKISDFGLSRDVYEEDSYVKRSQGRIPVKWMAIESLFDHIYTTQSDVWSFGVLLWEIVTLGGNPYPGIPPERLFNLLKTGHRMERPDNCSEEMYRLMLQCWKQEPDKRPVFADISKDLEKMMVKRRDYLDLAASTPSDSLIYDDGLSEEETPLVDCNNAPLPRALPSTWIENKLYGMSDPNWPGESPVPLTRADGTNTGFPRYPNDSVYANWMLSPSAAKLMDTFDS
Chain of ALK (Q9UM73 whole entry): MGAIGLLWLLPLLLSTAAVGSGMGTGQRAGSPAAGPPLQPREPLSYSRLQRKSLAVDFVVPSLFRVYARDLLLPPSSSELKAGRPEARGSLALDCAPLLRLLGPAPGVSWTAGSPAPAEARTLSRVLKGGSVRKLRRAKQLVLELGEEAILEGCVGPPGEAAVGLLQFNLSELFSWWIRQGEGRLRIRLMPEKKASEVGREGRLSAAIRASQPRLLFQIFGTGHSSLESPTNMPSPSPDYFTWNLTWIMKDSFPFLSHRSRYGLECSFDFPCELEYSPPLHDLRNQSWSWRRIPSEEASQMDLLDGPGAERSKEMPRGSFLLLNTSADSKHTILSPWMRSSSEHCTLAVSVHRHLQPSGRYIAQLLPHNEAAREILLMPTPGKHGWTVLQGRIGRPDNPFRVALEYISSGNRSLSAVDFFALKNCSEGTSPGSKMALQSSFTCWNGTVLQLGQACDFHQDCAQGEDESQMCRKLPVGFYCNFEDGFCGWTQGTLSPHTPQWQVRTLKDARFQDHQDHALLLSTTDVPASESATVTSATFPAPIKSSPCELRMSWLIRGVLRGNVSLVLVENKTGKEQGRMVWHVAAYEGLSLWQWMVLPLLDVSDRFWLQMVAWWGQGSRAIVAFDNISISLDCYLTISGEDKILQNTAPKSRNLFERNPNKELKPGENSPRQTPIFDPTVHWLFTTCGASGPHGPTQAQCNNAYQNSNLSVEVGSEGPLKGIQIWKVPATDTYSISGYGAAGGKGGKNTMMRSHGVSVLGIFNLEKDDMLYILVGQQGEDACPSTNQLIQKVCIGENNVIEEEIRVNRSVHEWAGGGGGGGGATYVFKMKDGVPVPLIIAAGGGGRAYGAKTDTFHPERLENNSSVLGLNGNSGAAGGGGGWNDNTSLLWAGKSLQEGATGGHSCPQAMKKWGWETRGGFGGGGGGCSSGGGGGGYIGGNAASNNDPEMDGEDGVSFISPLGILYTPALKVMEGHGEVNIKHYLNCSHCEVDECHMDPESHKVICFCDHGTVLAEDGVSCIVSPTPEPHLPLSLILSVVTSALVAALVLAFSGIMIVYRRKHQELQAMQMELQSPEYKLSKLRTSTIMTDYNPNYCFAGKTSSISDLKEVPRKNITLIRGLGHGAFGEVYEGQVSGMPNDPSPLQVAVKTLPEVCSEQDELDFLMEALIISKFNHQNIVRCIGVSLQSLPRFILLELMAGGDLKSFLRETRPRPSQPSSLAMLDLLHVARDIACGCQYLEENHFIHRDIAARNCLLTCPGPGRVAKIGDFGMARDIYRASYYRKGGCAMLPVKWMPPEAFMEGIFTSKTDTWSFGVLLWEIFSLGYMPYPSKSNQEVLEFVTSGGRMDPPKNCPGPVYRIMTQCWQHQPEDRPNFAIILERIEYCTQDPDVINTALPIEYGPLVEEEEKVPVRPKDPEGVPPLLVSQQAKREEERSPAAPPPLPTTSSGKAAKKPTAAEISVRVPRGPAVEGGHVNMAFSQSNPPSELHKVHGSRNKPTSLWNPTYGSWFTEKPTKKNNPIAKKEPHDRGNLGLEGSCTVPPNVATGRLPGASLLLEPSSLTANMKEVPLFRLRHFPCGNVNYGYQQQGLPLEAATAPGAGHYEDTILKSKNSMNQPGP
T7 sequence (Q6DT37 whole entry): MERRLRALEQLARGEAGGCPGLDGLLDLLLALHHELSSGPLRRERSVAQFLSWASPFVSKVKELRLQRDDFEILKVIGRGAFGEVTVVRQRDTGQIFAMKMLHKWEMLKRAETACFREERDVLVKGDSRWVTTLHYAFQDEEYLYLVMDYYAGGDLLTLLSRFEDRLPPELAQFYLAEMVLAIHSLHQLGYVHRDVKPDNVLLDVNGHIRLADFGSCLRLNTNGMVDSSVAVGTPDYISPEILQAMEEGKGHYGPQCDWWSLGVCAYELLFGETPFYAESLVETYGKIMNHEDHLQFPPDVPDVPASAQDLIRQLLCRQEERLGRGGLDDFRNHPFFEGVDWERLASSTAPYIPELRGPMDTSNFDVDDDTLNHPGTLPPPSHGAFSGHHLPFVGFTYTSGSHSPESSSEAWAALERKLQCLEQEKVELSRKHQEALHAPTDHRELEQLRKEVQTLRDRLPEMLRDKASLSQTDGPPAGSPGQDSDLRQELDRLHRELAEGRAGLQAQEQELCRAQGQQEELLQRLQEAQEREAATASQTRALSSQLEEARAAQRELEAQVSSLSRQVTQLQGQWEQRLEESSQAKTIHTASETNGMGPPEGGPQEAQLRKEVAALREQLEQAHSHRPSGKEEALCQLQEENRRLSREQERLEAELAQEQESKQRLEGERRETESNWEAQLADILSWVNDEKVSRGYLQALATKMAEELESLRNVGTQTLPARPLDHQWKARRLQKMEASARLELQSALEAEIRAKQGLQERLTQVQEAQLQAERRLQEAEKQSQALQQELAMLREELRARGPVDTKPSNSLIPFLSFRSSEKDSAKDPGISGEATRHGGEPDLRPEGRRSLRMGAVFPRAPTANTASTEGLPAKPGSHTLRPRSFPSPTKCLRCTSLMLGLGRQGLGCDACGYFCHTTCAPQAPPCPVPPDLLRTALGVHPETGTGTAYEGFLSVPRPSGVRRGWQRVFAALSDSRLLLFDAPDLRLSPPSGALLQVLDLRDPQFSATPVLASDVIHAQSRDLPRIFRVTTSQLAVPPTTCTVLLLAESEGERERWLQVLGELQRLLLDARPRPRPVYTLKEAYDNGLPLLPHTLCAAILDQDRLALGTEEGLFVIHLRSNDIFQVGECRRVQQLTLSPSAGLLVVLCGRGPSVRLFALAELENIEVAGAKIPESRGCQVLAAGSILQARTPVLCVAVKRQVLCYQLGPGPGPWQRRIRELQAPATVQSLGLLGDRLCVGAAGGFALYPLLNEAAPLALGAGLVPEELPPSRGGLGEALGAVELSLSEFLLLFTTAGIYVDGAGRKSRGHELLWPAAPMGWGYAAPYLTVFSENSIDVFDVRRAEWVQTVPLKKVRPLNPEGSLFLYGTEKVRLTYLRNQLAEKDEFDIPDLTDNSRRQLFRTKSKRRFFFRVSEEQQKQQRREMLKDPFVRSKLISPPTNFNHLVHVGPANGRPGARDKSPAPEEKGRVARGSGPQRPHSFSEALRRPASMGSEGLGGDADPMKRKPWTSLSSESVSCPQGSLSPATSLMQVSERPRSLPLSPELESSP
T2 sequence (P05771 whole entry, canonical isoform): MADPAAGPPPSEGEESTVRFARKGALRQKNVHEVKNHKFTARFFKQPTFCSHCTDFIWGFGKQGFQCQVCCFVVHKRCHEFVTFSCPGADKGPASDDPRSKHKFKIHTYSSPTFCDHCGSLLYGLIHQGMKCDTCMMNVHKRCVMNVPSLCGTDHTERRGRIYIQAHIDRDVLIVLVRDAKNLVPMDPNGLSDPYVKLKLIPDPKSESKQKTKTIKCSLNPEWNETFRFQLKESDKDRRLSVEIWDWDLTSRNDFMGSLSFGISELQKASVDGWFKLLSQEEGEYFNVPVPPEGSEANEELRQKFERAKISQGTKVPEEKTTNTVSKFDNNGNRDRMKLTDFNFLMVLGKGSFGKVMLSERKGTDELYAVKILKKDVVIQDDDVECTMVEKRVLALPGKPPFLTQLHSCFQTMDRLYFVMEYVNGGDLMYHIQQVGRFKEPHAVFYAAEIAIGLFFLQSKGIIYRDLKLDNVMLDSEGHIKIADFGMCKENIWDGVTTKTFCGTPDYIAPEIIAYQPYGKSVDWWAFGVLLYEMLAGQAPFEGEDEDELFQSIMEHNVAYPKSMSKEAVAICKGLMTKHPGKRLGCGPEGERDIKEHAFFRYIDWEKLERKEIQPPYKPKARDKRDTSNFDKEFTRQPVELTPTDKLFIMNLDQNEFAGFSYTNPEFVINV

Q: Which results are given for `CC(C)(O)CC(=O)NCCn1ccc2ncnc(Nc3ccc(Oc4cccc(C(F)(F)F)c4)c(Cl)c3)c21` [TAK-285]?
A: inhibition (GRK4): -11.5%; inhibition (Mer): 49.5%; inhibition (CSF1R): 10.5%; inhibition (PKC_beta2): 9.5%; inhibition (PKA): 2.5%; inhibition (TAO2): -5%; inhibition (PrKX): 6.5%; inhibition (MST1): 2%; inhibition (PRKAA2_B2_G3): 9.5%; inhibition (MARK2): 5.5%; inhibition (DMPK2): 2%; inhibition (PKG1_alpha): 0%; inhibition (CamKII_delta): 6%; inhibition (ERK2): 12.5%; inhibition (PLK3): -8.5%; inhibition (p38_delta): 5.5%; inhibition (KHS1): 40.5%; inhibition (Fyn): 53%; inhibition (Flt1): -1.5%; inhibition (Ret): 15.5%; inhibition (ALK): 8.5%; inhibition (MuSK): 17.5%; inhibition (CamKIV): 6.5%; inhibition (FGFR1): 4%; inhibition (ErbB2): 99%; inhibition (MRCK_alpha): -3.5%; inhibition (CK1_gamma2): -5%; inhibition (CLK1): 10.5%; inhibition at 10 µM (mTOR): 9.5%; inhibition (Flt3): 27%; inhibition (FAK): 7.5%; inhibition (AKT2): 5.5%; inhibition (MARK4): 3.5%; inhibition (PRK1): -7%; inhibition (IRAK4): 6%; inhibition (KSR2): 0%; inhibition (ITK): 1%; inhibition (PKC_zeta): 8.5%
